Common to all, as to type: cell-based, human
The subject of experiment [1] is HUVECs. The experiment in a line: Matrigel tube formation assay. The note with it: TNFα 20 ng/ml. On the procedure: (§1) In FIG. 24A ad-null or ad-BRCA1 infected cells were trypsinized and seeded in the presence and absence of TNFα (20 ng/ml) on coated inserts and a colorimetric assay was performed after 24 hours. Migration was calculated as a percentage of ad-null controls. (n=4, **p<0.01). In FIG. 24B, ad-null or ad-BRCA1 infected HUVECs were seeded onto matrigel in the presence or absence of TNFα (20 ng/ml). Images were taken 5 hours after seeding (original magnification 20×). In FIG. 24C data was semi-quantitatively analyzed by counting tubular structures in four fields per group. Data is presented as mean±SD (n=3 in triplicate, *p<0.05, **p<0.01). HUVECs infected with ad-null or ad-BRCA1 were treated for 24 hours with TNFα (20 ng/ml). VCAM1 (FIG. 24D, FIG. 24E), ICAM1 (FIG. 24F, FIG. 24G) and E-selectin (FIG. 24H, FIG. 24I) protein and transcript expression were determined in cell extracts via western blots and real-time PCR, respectively. GAPDH was used as a loading control for western blots and as a housekeeping gene for real-time PCR. Data are expressed as mean±SD (n=3, **p<0.01).
HUVEC-associated angiogenesis was measured with the In Vitro Angiogenesis Assay Kit from Chemicon. […] Tube formation was quantified by counting the number of tubes, branching points and network of tubes in randomly captured microscopic fields and by scoring the values for each type of structure. […]

In experiment [2] the test system is HUVECs. The experiment in a line: HUVEC migration assay. The note with it: TNFα 20 ng/ml. Here is the method: as §1, with “GAPDH was used as a loading control for western blots and as a housekeeping gene for real-time PCR.” left out
The migratory function of HUVECs was determined with the CytoSelect™ 24-Well Cell Migration Fluorometric Assay (Cell Biolabs). […] Following 12 hours at 37° C., migratory cells were dissociated from the underside of the insert membrane, lysed and stained with the Lysis Buffer/CyQuant® GR dye solution before being fluorescently quantified. […]

Experiment [3] concerns VCAM1, ICAM1 and E-selectin. The experiment in a line: VCAM1, ICAM1 and E-selectin expression in HUVECs, real-time PCR and western blot. The note with it: ad-null treated HUVECs, TNFα 20 ng/ml 24 hours. On the procedure:
as §1
Western blot analysis was performed according to standard procedures. Proteins from whole cell lysates of HUVECs were resolved on SDS-polyacrylamide gels and transferred to nitrocellulose membranes (Bio-Rad). Membranes were probed with primary antibodies from Santa Cruz (BRCA1), Cell Signaling (p53, p21, Ser1177-phospho-eNOS, Akt, Ser473-phospho-Akt, cleaved caspase-3), Chemicon (GADD45a, GAPDH) and BD (eNOS). Immunoblots were incubated with the appropriate horseradish peroxidase-associated secondary antibodies before signals were visualized by chemiluminescence via the ECL detection system (GE Healthcare).
Total RNA extracted from HUVECs were reverse transcribed for quantitative assessment of VCAM1, ICAM1, E-selectin and VEGFa expressions by real-time PCR using the primer pairs listed in Table 4.
PCR reactions were performed on the ABI PRISM 7900HT system (Applied Biosystems) with GAPDH acting as the housekeeping control.

On to TNFα, for which, in the experiment on HUVECs [1], the “capacity to form vessel-like tubular structures” value is reported as “reduced”. Moreover, the “migratory capacity of HUVECs” value with HUVECs [2] is “significantly hampered”. In experiment [3], this substance yielded an E-selectin transcript upregulation of 200 times, an ICAM1 transcript upregulation of 400 times and a VCAM1 transcript upregulation of 1500 times.

For the origin of these results see patent US8496928B2, “Method for preventing and treating cardiovascular diseases with BRCA1” (priority 2008, dated 2013).
